Data reported in publication PMC2819846 (Mutation research, 2008).
Values joined by “and” are separate entries in the source; they are usually repeats but may differ in a detail not shown here. Equal values may be shown once. Read-outs that look alike come from different tables or passages of the source.

Experiments:
Salmonella = conditions: cited from earlier work
Salmonella TA100 = experiment: Salmonella plate-incorporation mutagenicity assay, strain TA100; format: cell-based; conditions: for Mutagenic potency, Revertants/µg ± S.E., TA100 / Mutagenicity call TA100: plate-incorporation, +S9
[1] = test system: DNA from Salmonella TA100; experiment: Abasic sites by aldehydic-site assay in DNA of treated TA100; format: cell-based; conditions: DMSO 5.9 ± 0.33
[2] = test system: DNA from Salmonella TA100; experiment: Stable DNA adducts by 32P-postlabeling in DNA of treated TA100; format: cell-based; conditions: DMSO 0.024 ± 0.000
Salmonella TA98 = experiment: Salmonella plate-incorporation mutagenicity assay, strain TA98, with S9 mix; format: cell-based; conditions: for Mutagenic potency, Revertants/µg ± S.E., TA98 / Mutagenicity call TA98: plate-incorporation, +S9
strain TA100 = format: cell-based, Salmonella; conditions: TA100 liquid-suspension; for Rev/10^6 survivors: DMSO 0.8; for Percent survival: DMSO 100
Salmonella TA104 = experiment: Salmonella plate-incorporation mutagenicity assay, strain TA104, with S9 mix; format: cell-based; conditions: for Mutagenic potency, Revertants/µg ± S.E., TA104 / Mutagenicity call TA104: plate-incorporation, +S9
[3] = TA100 +S9, Test 3, 0.5 µg/plate, zero-dose 127/118/125
[4] = TA100 +S9, Test 3, 1 µg/plate, zero-dose 127/118/125
[5] = TA100 +S9, Test 3, 2.5 µg/plate, zero-dose 127/118/125
[6] = TA100 +S9, Test 3, 5 µg/plate, zero-dose 127/118/125
[7] = TA98 +S9, Test 1, 2 µg/plate, zero-dose 33/40/39
[8] = TA98 +S9, Test 1, 5 µg/plate, zero-dose 33/40/39
[9] = TA98 +S9, Test 1, 10 µg/plate, zero-dose 33/40/39
[10] = TA98 +S9, Test 1, 20 µg/plate, zero-dose 33/40/39
[11] = TA98 +S9, Test 1, 40 µg/plate, zero-dose 33/40/39
[12] = TA98 +S9, Test 1, 80 µg/plate, zero-dose 33/40/39
[13] = TA104 +S9, Test 2, 2.5 µg/plate, zero-dose 276/260/270
[14] = TA104 +S9, Test 2, 5 µg/plate, zero-dose 276/260/270
[15] = TA104 +S9, Test 3, 2.5 µg/plate, zero-dose 402/395/336
[16] = TA104 +S9, Test 3, 5 µg/plate, zero-dose 402/395/336

O[C@H]1C=Cc2ccc3c(sc4ccccc43)c2[C@@H]1O [[2,1]BNT-1,2-diol]
Mutagenicity in Salmonella TA100 (Salmonella; TA100): not mutagenic

c1ccc2c(c1)ccc1cc3c(cc12)sc1ccccc13 [BPT, benzo[b]phenanthro[2,3-d]thiophene]
Mutagenicity in Salmonella (Salmonella): mutagenic

O[C@@H]1C=Cc2c(ccc3ccc4sccc4c23)[C@H]1O (racemic) [P[3,4-b]T 8,9-diol, (±)-trans-8,9-Dihydrophenanthro[3,4-b]thiophene 8,9-diol]
Rev/plate (Salmonella TA100; TA100 +S9, Test 1, 2 µg/plate, zero-dose 99/110/110): 326 rev/plate
Rev/plate (Salmonella TA100; TA100 +S9, Test 1, 5 µg/plate, zero-dose 99/110/110): 554 rev/plate
Rev/plate (Salmonella TA100; TA100 +S9, Test 1, 10 µg/plate, zero-dose 99/110/110): 755 rev/plate
Rev/plate (Salmonella TA100; TA100 +S9, Test 1, 20 µg/plate, zero-dose 99/110/110): 995 rev/plate
Rev/plate (Salmonella TA100; TA100 +S9, Test 1, 40 µg/plate, zero-dose 99/110/110): 992 rev/plate
Rev/plate (Salmonella TA100; TA100 +S9, Test 1, 80 µg/plate, zero-dose 99/110/110): 847 rev/plate
Rev/plate (Salmonella TA100; TA100 +S9, Test 2, 0.5 µg/plate, zero-dose 84/78/80): 80/94
Rev/plate (Salmonella TA100; TA100 +S9, Test 2, 1 µg/plate, zero-dose 84/78/80): 140/116
Rev/plate (Salmonella TA100; TA100 +S9, Test 2, 2.5 µg/plate, zero-dose 84/78/80): 268/224
Rev/plate (Salmonella TA100; TA100 +S9, Test 2, 5 µg/plate, zero-dose 84/78/80): 352/315
Rev/plate (Salmonella TA100; [3]): 147/151
Rev/plate (Salmonella TA100; [4]): 178/187
Rev/plate (Salmonella TA100; [5]): 347/430
Rev/plate (Salmonella TA100; [6]): 545/614
Mutagenic potency, Revertants/µg ± S.E., TA100 (Salmonella TA100): 80.0 ± 13.2 rev/µg
Mutagenicity call TA100 (Salmonella TA100): (+) (Called mutagenic (+) based on showing reproducible, dose-related increases in rev/plate that reached or exceeded 2-fold relative to zero-dose controls)
Abasic sites/10^5 nucleotides ± S.E ([1]; TA100, 2 µg/ml): 2.9 ± 0.23 sites/10^5 nucleotides
Abasic sites/10^5 nucleotides ± S.E ([1]; TA100, 5 µg/ml): 4.7 ± 0.25 sites/10^5 nucleotides
Stable adducts/10^8 nucleotides ± S.E ([2]; TA100, 2 µg/ml): 0.170 ± 0.045 adducts/10^8 nucleotides
Stable adducts/10^8 nucleotides ± S.E ([2]; TA100, 5 µg/ml): 0.750 ± 0.045 adducts/10^8 nucleotides
Rev/plate (Salmonella TA98; [7]): 61 rev/plate
Rev/plate (Salmonella TA98; [8]): 87 rev/plate
Rev/plate (Salmonella TA98; [9]): 94 rev/plate
Rev/plate (Salmonella TA98; [10]): 156 rev/plate
Rev/plate (Salmonella TA98; [11]): 285 rev/plate
Rev/plate (Salmonella TA98; [12]): 412 rev/plate
Rev/plate (Salmonella TA98; TA98 +S9, Test 2, 10 µg/plate, zero-dose 43/41/30): 104/110
Rev/plate (Salmonella TA98; TA98 +S9, Test 2, 20 µg/plate, zero-dose 43/41/30): 124/134
Rev/plate (Salmonella TA98; TA98 +S9, Test 2, 40 µg/plate, zero-dose 43/41/30): 276/244
Rev/plate (Salmonella TA98; TA98 +S9, Test 2, 80 µg/plate, zero-dose 43/41/30): 381/323
Rev/plate (Salmonella TA98; TA98 +S9, Test 3, 10 µg/plate, zero-dose 49/50/50): 143/142
Rev/plate (Salmonella TA98; TA98 +S9, Test 3, 20 µg/plate, zero-dose 49/50/50): 193/190
Rev/plate (Salmonella TA98; TA98 +S9, Test 3, 40 µg/plate, zero-dose 49/50/50): 315/359
Rev/plate (Salmonella TA98; TA98 +S9, Test 3, 80 µg/plate, zero-dose 49/50/50): 448/459
Mutagenic potency, Revertants/µg ± S.E., TA98 (Salmonella TA98): 5.6 ± 0.8 rev/µg
Mutagenicity call TA98 (Salmonella TA98): (+) (Called mutagenic (+) based on showing reproducible, dose-related increases in rev/plate that reached or exceeded 2-fold relative to zero-dose controls)
Fold increase in mutant frequency relative to DMSO-treated cells (strain TA100; 2 µg/ml): 2.5 fold
Rev/10^6 survivors (strain TA100; 2 µg/ml): 2.0 Rev/10^6 survivors
Percent survival (strain TA100; 2 µg/ml): 91%
Fold increase in mutant frequency relative to DMSO-treated cells (strain TA100; 5 µg/ml): 2.8 fold
Rev/10^6 survivors (strain TA100; 5 µg/ml): 2.2 Rev/10^6 survivors
Percent survival (strain TA100; 5 µg/ml): 63%
Rev/plate (Salmonella TA104; TA104 +S9, Test 2, 0.5 µg/plate, zero-dose 276/260/270): 486/465
Rev/plate (Salmonella TA104; TA104 +S9, Test 2, 1 µg/plate, zero-dose 276/260/270): 213/673
Rev/plate (Salmonella TA104; [13]): 1311/1300
Rev/plate (Salmonella TA104; [14]): 1723/1755
Rev/plate (Salmonella TA104; TA104 +S9, Test 3, 0.5 µg/plate, zero-dose 402/395/336): 566/525
Rev/plate (Salmonella TA104; TA104 +S9, Test 3, 1 µg/plate, zero-dose 402/395/336): 754/785
Rev/plate (Salmonella TA104; [15]): 1235/1287
Rev/plate (Salmonella TA104; [16]): 1508/1620
Mutagenic potency, Revertants/µg ± S.E., TA104 (Salmonella TA104): 369 ± 28 rev/µg
Mutagenicity call TA104 (Salmonella TA104): (+) (Called mutagenic (+) based on showing reproducible, dose-related increases in rev/plate that reached or exceeded 2-fold relative to zero-dose controls)

O=S1(=O)C=Cc2c1ccc1ccc3ccccc3c21 [P[3,4-b]T sulfone, Phenanthro[3,4-b]thiophene sulfone]
Rev/plate (Salmonella TA100; TA100 +S9, Test 3, 0.1 µg/plate, zero-dose 127/118/125): 239/190
Rev/plate (Salmonella TA100; TA100 +S9, Test 3, 0.25 µg/plate, zero-dose 127/118/125): 368/365
Rev/plate (Salmonella TA100; [3]): 681/795
Rev/plate (Salmonella TA100; [4]): 1332/1283
Rev/plate (Salmonella TA100; [5]): 2801/2710
Rev/plate (Salmonella TA100; [6]): 3090/3170
Rev/plate (Salmonella TA100; TA100 +S9, Test 4, 0.1 µg/plate, zero-dose 112/140/115): 197/195
Rev/plate (Salmonella TA100; TA100 +S9, Test 4, 0.25 µg/plate, zero-dose 112/140/115): 284/297
Rev/plate (Salmonella TA100; TA100 +S9, Test 4, 0.5 µg/plate, zero-dose 112/140/115): 453/514
Rev/plate (Salmonella TA100; TA100 +S9, Test 4, 1 µg/plate, zero-dose 112/140/115): 380/383
Rev/plate (Salmonella TA100; TA100 +S9, Test 4, 2.5 µg/plate, zero-dose 112/140/115): 1885 rev/plate
Rev/plate (Salmonella TA100; TA100 +S9, Test 5, 0.1 µg/plate, zero-dose 102/119/99): 194/197
Rev/plate (Salmonella TA100; TA100 +S9, Test 5, 0.25 µg/plate, zero-dose 102/119/99): 255/245
Rev/plate (Salmonella TA100; TA100 +S9, Test 5, 0.5 µg/plate, zero-dose 102/119/99): 504/448
Rev/plate (Salmonella TA100; TA100 +S9, Test 5, 1 µg/plate, zero-dose 102/119/99): 1037/993
Rev/plate (Salmonella TA100; TA100 +S9, Test 5, 2.5 µg/plate, zero-dose 102/119/99): 2935/2875
Mutagenic potency, Revertants/µg ± S.E., TA100 (Salmonella TA100): 914 ± 113 rev/µg
Mutagenicity call TA100 (Salmonella TA100): (+) (Called mutagenic (+) based on showing reproducible, dose-related increases in rev/plate that reached or exceeded 2-fold relative to zero-dose controls)
Mutagenicity without S9 mix (direct-acting activity) (Salmonella TA100; without S9 mix): required metabolic activation to be mutagenic
Abasic sites/10^5 nucleotides ± S.E ([1]; TA100, 10 µg/ml): 18.4 ± 0.64 sites/10^5 nucleotides
Abasic sites/10^5 nucleotides ± S.E ([1]; TA100, 20 µg/ml): 15.1 ± 0.43 sites/10^5 nucleotides
Stable adducts/10^8 nucleotides ± S.E ([2]; TA100, 10 µg/ml): Not detected
Stable adducts/10^8 nucleotides ± S.E ([2]; TA100, 20 µg/ml): Not detected
Rev/plate (Salmonella TA98; [7]): 328 rev/plate
Rev/plate (Salmonella TA98; [8]): 982 rev/plate
Rev/plate (Salmonella TA98; [9]): 1373 rev/plate
Rev/plate (Salmonella TA98; [10]): 1324 rev/plate
Rev/plate (Salmonella TA98; [11]): 1124 rev/plate
Rev/plate (Salmonella TA98; [12]): 1268 rev/plate
Rev/plate (Salmonella TA98; TA98 +S9, Test 2, 0.5 µg/plate, zero-dose 43/41/30): 41/57
Rev/plate (Salmonella TA98; TA98 +S9, Test 2, 1 µg/plate, zero-dose 43/41/30): 63/67
Rev/plate (Salmonella TA98; TA98 +S9, Test 2, 2.5 µg/plate, zero-dose 43/41/30): 263/237
Rev/plate (Salmonella TA98; TA98 +S9, Test 2, 5 µg/plate, zero-dose 43/41/30): 765/708
Rev/plate (Salmonella TA98; TA98 +S9, Test 3, 0.5 µg/plate, zero-dose 49/50/50): 56/52
Rev/plate (Salmonella TA98; TA98 +S9, Test 3, 1 µg/plate, zero-dose 49/50/50): 124/86
Rev/plate (Salmonella TA98; TA98 +S9, Test 3, 2.5 µg/plate, zero-dose 49/50/50): 293/366
Rev/plate (Salmonella TA98; TA98 +S9, Test 3, 5 µg/plate, zero-dose 49/50/50): 1078/922
Mutagenic potency, Revertants/µg ± S.E., TA98 (Salmonella TA98): 143 rev/µg and 143 ± 19 rev/µg
Mutagenicity call TA98 (Salmonella TA98): (+) (Called mutagenic (+) based on showing reproducible, dose-related increases in rev/plate that reached or exceeded 2-fold relative to zero-dose controls)
Fold increase in mutant frequency relative to DMSO-treated cells (strain TA100; 10 µg/ml): 17.6 fold
Rev/10^6 survivors (strain TA100; 10 µg/ml): 14.1 Rev/10^6 survivors
Percent survival (strain TA100; 10 µg/ml): 56%
Fold increase in mutant frequency relative to DMSO-treated cells (strain TA100; 20 µg/ml): 62.1 fold
Rev/10^6 survivors (strain TA100; 20 µg/ml): 49.1 Rev/10^6 survivors
Percent survival (strain TA100; 20 µg/ml): 37%
Rev/plate (Salmonella TA104; [13]): 1068/1015
Rev/plate (Salmonella TA104; [14]): 1603/1565
Rev/plate (Salmonella TA104; TA104 +S9, Test 2, 10 µg/plate, zero-dose 276/260/270): 1488/1583
Rev/plate (Salmonella TA104; TA104 +S9, Test 2, 20 µg/plate, zero-dose 276/260/270): 706/778
Rev/plate (Salmonella TA104; [15]): 1027/982
Rev/plate (Salmonella TA104; [16]): 1650/1580
Rev/plate (Salmonella TA104; TA104 +S9, Test 3, 10 µg/plate, zero-dose 402/395/336): 1652/1652
Rev/plate (Salmonella TA104; TA104 +S9, Test 3, 20 µg/plate, zero-dose 402/395/336): 758/919
Mutagenic potency, Revertants/µg ± S.E., TA104 (Salmonella TA104): 262 ± 135 rev/µg
Mutagenicity call TA104 (Salmonella TA104): (+) (Called mutagenic (+) based on showing reproducible, dose-related increases in rev/plate that reached or exceeded 2-fold relative to zero-dose controls)
